Measurements taken from patent US20240279205A1, “NOVEL BENZIMIDAZOLE DERIVATIVE” (Carna Biosciences, Inc., priority 2020, published 2024).
Where a name gives a salt, the structure may show the parent alone.

What was measured:
[1] = system: STING activation (IFN-β production in THP-1 cells); assay: Human IFN-β production inhibition test by cGAMP stimulation in THP-1 cells; type: cell-based; design: IFN-β bioinhibitory activity: scale not given here; conditions: 2'3'-cGAMP transfection, 18 hours, IFN-β ELISA; for IC50: Homo sapiens, read-out: IFN-β bioinhibitory activity
Experimental: Human IFN-β production inhibition test by cGAMP stimulation
The inhibitory activity of test compounds against STING activation was evaluated by measuring the amount of IFN-β produced when human monocytic cell line THP-1 cells were stimulated with the endogenous ligand cGAMP.
After seeding THP-1 cells (ATCC) in a 96-well plate, PMA (Santa Cruz Biotechnology) adjusted to a concentration of 100 nM after addition was added, and incubated at 37° C. in a 5% CO2 incubator. It was cultured overnight (RPMI1640 medium containing 10% FBS, 50 U/mL penicillin/50 μg/mL streptomycin). A test compound solution adjusted to a final concentration of 0.001 to 1 μM was added to each well of this plate and cultured for 1 hour in a CO2 incubator (DMSO final concentration 0.1%). 0.12 μg/well of 2′3′-cGAMP (Invivogen, #tlrl-nacga23) was introduced into the cells by transfection using Lipofectamine2000 (Invitrogen) and cultured in a CO incubator for an additional 18 hours. After collecting the culture supernatant from each well, the amount of human IFN-β produced in the culture supernatant was measured by ELISA using R&D human IFN-β Duoset (R&D Systems).
Assuming that the human IFN-β production amount of the test compound-free and cGAMP-added group is 100%, and the human IFN-β production amount of the test compound-free and cGAMP-free group is 0%, the IC50 value was determined by regression analysis of the inhibitory rate determined from the amount of human IFN-β production at each compound concentration and the concentration of the test compound (logarithm).

human STING (hSTING) = target: T1, human STING (hSTING) (Homo sapiens, UniProt Q86WV6); assay: Inhibition test of intracellular human STING (hSTING) pathway using SEAP reporter cells (HEK-Blue ISG), stimulation with Compound 3; type: cell-based; design: hSTING inhibitory activity: scale not given here; conditions: Compound 3 10 nM stimulation, 21 hours
T1 construct: host or cells: HEK-Blue ISG cells (HEK293-derived SEAP reporter line)
T1 sequence (Q86WV6 whole entry H232R): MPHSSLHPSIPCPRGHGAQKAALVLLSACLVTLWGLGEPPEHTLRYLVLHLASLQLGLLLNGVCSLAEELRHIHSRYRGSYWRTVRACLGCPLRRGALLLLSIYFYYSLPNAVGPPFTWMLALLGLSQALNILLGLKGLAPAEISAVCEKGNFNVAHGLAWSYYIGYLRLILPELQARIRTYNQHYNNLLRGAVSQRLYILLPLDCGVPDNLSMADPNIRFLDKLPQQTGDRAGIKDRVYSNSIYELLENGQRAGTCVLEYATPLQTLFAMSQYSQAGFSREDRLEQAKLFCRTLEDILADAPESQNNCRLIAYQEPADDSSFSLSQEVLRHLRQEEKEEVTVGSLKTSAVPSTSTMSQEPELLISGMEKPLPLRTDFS
Method in brief: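 HEK-Blue ISG cells with IRF-inducible SEAP reporter, pretreated 1 h with compound (final 0.1 to 10 μM), then stimulated with Compound 3 (final 10 nM) for 21 h at 37° C. Supernatant SEAP measured colorimetrically; IC50 from log-concentration regression, normalized to stimulated (100%) and unstimulated (0%) controls.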

Compound | IFN-β bioinhibitory activity [1] | hSTING inhibitory activity (human STING (hSTING)) | IC50 [1] [nM] | IC50 (human STING (hSTING); read-out: hSTING inhibitory activity) [nM]
Clc1ccc2[nH]c(Nc3c[nH]c4ccc(Br)nc34)nc2c1 [Embodiment 32, N-(5-bromo-1H-pyrrolo[3,2-b]pyridin-3-yl)-5-chloro-1H-benzo[d]imidazol-2-amine] | * * | * * |  | 
Fc1ccc2[nH]c(Nc3c[nH]c4ccc(Br)cc34)nc2c1 [Embodiment 33, N-(5-bromo-1H-indol-3-yl)-5-fluoro-1H-benzo[d]imidazol-2-amine] |  | * * * | 100 to 1000 | 
Clc1ccc2[nH]cc(Nc3nc4cc(Oc5ccccc5)ccc4[nH]3)c2n1 [Embodiment 35, N-(5-chloro-1H-pyrrolo[3,2-b]pyridin-3-yl)-5-phenoxy-1H-benzo[d]imidazol-2-amine] |  | * * * | 100 to 1000 | 
COc1ccc2[nH]cc(Nc3nc4cc(Oc5ccccc5)ccc4[nH]3)c2n1 [Embodiment 36, N-(5-methoxy-1H-pyrrolo[3,2-b]pyridin-3-yl)-5-phenoxy-1H-benzo[d]imidazol-2-amine] | * * | * * |  | 
Clc1ccnc2c(Nc3nc4cc(Oc5ccccc5)ccc4[nH]3)c[nH]c12 [Embodiment 38, N-(7-chloro-1H-pyrrolo[3,2-b]pyridin-3-yl)-5-phenoxy-1H-benzo[d]imidazol-2-amine] |  | * * | ≥ 1000 | 
Cn1c(Nc2c[nH]c3ccc(Cl)nc23)nc2ccc(Oc3ccccc3)cc21 [Embodiment 44, N-(5-chloro-1H-pyrrolo[3,2-b]pyridin-3-yl)-1-methyl-6-phenoxy-1H-benzo[d]imidazol-2-amine] |  | * * | 100 to 1000 | 
Cn1c(Nc2c[nH]c3ccc(Cl)nc23)nc2cc(Oc3ccccc3)ccc21 [Embodiment 45, N-(5-Chloro-1H-pyrrolo[3,2-b]pyridin-3-yl)-1-methyl-5-phenoxy-1H-benzo[d]imidazol-2-amine] |  | * * | 100 to 1000 | 
Cn1c(Nc2c[nH]c3ccc(Cl)nc23)nc2cc(C(F)(F)F)ccc21 [Embodiment 47, N-(5-Chloro-1H-pyrrolo[3,2-b]pyridin-3-yl)-1-methyl-5-(trifluoromethyl)-1H-benzo[d] imidazol-2-amine] | * * | * * |  | 
Cc1ccnc2c(Nc3nc4cc(Oc5ccccc5)ccc4[nH]3)c[nH]c12 [Embodiment 52, N-(7-methyl-1H-pyrrolo[3,2-b]pyridin-3-yl)-5-phenoxy-1H-benzo[d]imidazol-2-amine] |  | * * | 100 to 1000 | 
Cc1ccc2[nH]cc(Nc3nc4cc(Oc5ccccc5)ccc4[nH]3)c2n1 [Embodiment 53, N-(5-methyl-1H-pyrrolo[3,2-b]pyridin-3-yl)-5-phenoxy-1H-benzo[d]imidazol-2-amine] |  | * * | ≥ 1000 | 
c1ccc(Oc2ccc3[nH]c(Nc4c[nH]c5c(-c6ccccc6)ccnc45)nc3c2)cc1 [Embodiment 54, 5-phenoxy-N-(7-phenyl-1H-pyrrolo[3,2-b]pyridin-3-yl)-1H-benzo[d]imidazol-2-amine] |  | * * | ≥ 1000 | 
Cn1c(Nc2c[nH]c3ccc(Cl)cc23)nc2cc(C(F)(F)F)ccc21 [Embodiment 56, N-(5-chloro-1H-indol-3-yl)-1-methyl-5-(trifluoromethyl)-1H-benzo[d]imidazol-2-amine] | * * * | * * * |  | 
FC(F)(F)c1ccc2c(c1)nc(Nc1c[nH]c3ccc(Cl)cc13)n2C1CC1 [Embodiment 57, N-(5-chloro-1H-indol-3-yl)-1-cyclopropyl-5-(trifluoromethyl)-1H-benzo[d]imidazol-2-amine] | * * | * * * |  | 
Cn1c(Nc2c[nH]c3ccc(Cl)nc23)nc2ccc(Oc3ccc(F)cc3)cc21 [Embodiment 58, N-(5-chloro-1H-pyrrolo[3,2-b]pyridin-3-yl)-6-(4-fluorophenoxy)-1-methyl-1H-benzo[d]imidazol-2-amine] |  | * * | 100 to 1000 | 
C[Si](C)(C)C#Cc1ccc2[nH]c(Nc3c[nH]c4ccc(Br)nc34)nc2c1 [Embodiment 59, N-(5-bromo-1H-pyrrolo[3,2-b]pyridin-3-yl)-5-[(trimethylsilyl)ethynyl]-1H-benzo[d]imidazol-2-amine] | * * | * * * |  | 
Brc1ccc2[nH]cc(Nc3nc4cc(-c5ccccc5)ccc4[nH]3)c2n1 [Embodiment 60, N-(5-bromo-1H-pyrrolo[3,2-b]pyridin-3-yl)-5-phenyl-1H-benzo [d]imidazol-2-amine] |  | * * * | 100 to 1000 | 1000 to 10000
CN(C)c1ccc(Oc2ccc3[nH]c(Nc4c[nH]c5ccc(Br)nc45)nc3c2)cc1 [Embodiment 64, N-(5-bromo-1H-pyrrolo[3,2-b]pyridin-3-yl)-5-[4-(dimethylamino)phenoxy]-1H-benzo[d]imidazol-2-amine] |  | * * | 100 to 1000 | 
Fc1cnc2[nH]cc(Nc3nc4cc(Oc5ccccc5)ccc4[nH]3)c2c1 [Embodiment 72, N-(5-fluoro-1H-pyrrolo[2,3-b]pyridin-3-yl)-5-phenoxy-1H-benzo [d]imidazol-2-amine formate] |  | * * | 100 to 1000 | 
Clc1cnc2[nH]cc(Nc3nc4cc(Oc5ccccc5)ccc4[nH]3)c2c1 [Embodiment 73, N-(5-Chloro-1H-pyrrolo[2,3-b]pyridin-3-yl)-5-phenoxy-1H-benzo[d]imidazol-2-amine formate] |  | * * * | 100 to 1000 | 
COc1ccnc2c(Nc3nc4cc(Oc5ccccc5)ccc4[nH]3)c[nH]c12 [Embodiment 77, N-(7-Methoxy-1H-pyrrolo[3,2-b]pyridin-3-yl)-5-phenoxy-1H-benzo[d]imidazol-2-amine formate] |  | * * | ≥ 1000 | 
Fc1cc2nc(Nc3c[nH]c4ccc(Cl)nc34)[nH]c2cc1F [Embodiment 78, N-(5-Chloro-1H-pyrrolo[3,2-b]pyridin-3-yl)-5,6-difluoro-1H-benzo[d]imidazol-2-amine] |  | * * | ≥ 1000 | 
Cc1cc2nc(Nc3c[nH]c4ccc(Br)nc34)[nH]c2cc1C [Embodiment 79, N-(5-bromo-1H-pyrrolo[3,2-b]pyridin-3-yl)-5,6-dimethyl-1H-benzo[d]imidazol-2-amine] |  | * * | 100 to 1000 | 
Brc1ccc2[nH]cc(Nc3nc4cc(I)ccc4[nH]3)c2n1 [Embodiment 80, N-(5-bromo-1H-pyrrolo[3,2-b]pyridin-3-yl)-5-iodo-1H-benzo [d]imidazol-2-amine] | * * * | * * * |  | 
Fc1ccc2[nH]c(Nc3c[nH]c4ccc(Cl)nc34)nc2c1F [Embodiment 82, N-(5-Chloro-1H-pyrrolo[3,2-b]pyridin-3-yl)-4,5-difluoro-1H-benzo[d]imidazol-2-amine] | * * | * * |  | 
Clc1cc(Cl)c2nc(Nc3c[nH]c4ccc(Cl)nc34)[nH]c2c1 [Embodiment 84, 4,6-dichloro-N-(5-chloro-1H-pyrrolo[3,2-b]pyridin-3-yl)-1H-benzo[d]imidazol-2-amine] |  | * * | ≥ 1000 | 
